Data from patent US20100009907A1, “Glucagon-Like Peptides and Uses Thereof” (AMYLIN PHARMACEUTICALS, INC., priority 2006, published 2010).
Where no end group is shown, it is not given here.

Legend:
[1] = target: T1, rat thyroid carcinoma 6-23 clone 6 cells expressing endogenous GLP-1 receptors (Rattus norvegicus, UniProt P32301); assay: GLP-1 cAMP (6-23) cyclase assay; assay type: cell-based
T1 construct: rat thyroid carcinoma 6-23 clone 6 cells or RINm5F insulinoma cells expressing endogenous GLP-1 receptors; endogenous in cells; host or cells: rat thyroid carcinoma 6-23 clone 6 cells
T1 sequence (P32301 22-463): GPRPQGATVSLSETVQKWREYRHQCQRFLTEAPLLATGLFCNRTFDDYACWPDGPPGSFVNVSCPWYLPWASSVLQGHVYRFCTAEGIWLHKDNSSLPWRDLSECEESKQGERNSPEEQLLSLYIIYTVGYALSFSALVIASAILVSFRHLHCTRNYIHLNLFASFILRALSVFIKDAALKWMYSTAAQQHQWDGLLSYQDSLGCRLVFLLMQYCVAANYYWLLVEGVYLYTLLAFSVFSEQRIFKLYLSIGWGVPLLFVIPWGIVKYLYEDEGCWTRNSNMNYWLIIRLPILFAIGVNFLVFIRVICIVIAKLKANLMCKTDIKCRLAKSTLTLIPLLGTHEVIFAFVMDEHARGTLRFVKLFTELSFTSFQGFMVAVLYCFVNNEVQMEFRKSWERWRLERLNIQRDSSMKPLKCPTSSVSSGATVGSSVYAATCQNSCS
Method: Cells, and peptide or buffer solutions are combined in 384-well plates and incubated at room temperature in air for 30-minutes. cAMP content can then be measured according to recommendations in the Perkin-Elmer AlphaScreen™ kit instructions using the Perkin Elmer Fusion fluorimeter and data are analyzed using XLfit software (IDBS).

[2] = target: T2, GLP-1 receptor (RINm5F cell membranes) (Rattus norvegicus, UniProt P32301); assay: GLP-1 receptor binding assay (GLP RBA), [125I]GLP-1 displacement; conditions: [125I]GLP-1 tracer
T2 construct: RINm5F insulinoma cells expressing endogenous GLP-1 receptors; endogenous in cells; host or cells: RINm5F cell membranes
T2 sequence (P32301 22-463): T1 sequence (P32301 22-463)
Method: Reaction mixtures are filtered through glass filter pads presoaked with 0.3% PEI solution and rinsed with ice-cold phosphate buffered saline. Bound counts are determined using a scintillation counter. Binding affinities are calculated using GraphPad Prism software (GraphPad Software, Inc., San Diego, Calif.).

[3] = Acute food intake assay (FI Assay); assay type: in vivo, NIH/Swiss mice; conditions: 1000 μg/kg intraperitoneal, relative to vehicle
Method: The effect of various test peptides on food intake is investigated using an acute food intake assay. This assay measures food consumption in lean, group-housed, overnight-fasted NIH/Swiss mice. Twelve mice are housed three to a cage. […] Decreased, as well as increased, food intake is measured. Testing of the various doses of the polypeptide generates ED50s.
Female NIH/Swiss mice (8-24 weeks old) are group housed with a 12:12 hour light:dark cycle with lights on at 0600. Water and a standard pelleted mouse chow diet are available ad libitum, except as noted. Animals are fasted starting at approximately 1500 hrs, 1 day prior to experiment. The morning of the experiment, animals are divided into experimental groups.
At time=0 min, all animals are given an intraperitoneal injection of vehicle or compound in an amount ranging from about 63 to 1000 μg/kg, and immediately given a pre-weighed amount (10-15 g) of the standard chow.

Molecule | EC50 [1] | Food Intake % inhibition 30 min [3] | Food Intake % inhibition 60 min [3] | Food Intake % inhibition 120 min [3] | other results
HAEGTYTNDVTEYLEEAAKEFIEWLIKGKPKKIRYS-NH2 (C-terminus assumed) [compound 30] | > 1000 nM | – | – | – | –
EGTYTNDVTEYLEEKAAKEFIEWLIKGKPKKIRYS-NH2 (C-terminus assumed) [compound 37] | > 1000 nM | – | – | – | IC50 [2]: 22 nM
CC[C@H](C)[C@H](NC(=O)[C@H](Cc1ccccc1)NC(=O)[C@H](CCC(=O)O)NC(=O)[C@H](CCCCN)NC(=O)[C@H](C)NC(=O)[C@H](C)NC(=O)[C@H](CCC(N)=O)NC(=O)CNC(=O)[C@H](CCC(=O)O)NC(=O)[C@H](CC(C)C)NC(=O)[C@H](Cc1ccc(O)cc1)NC(=O)[C@H](CO)NC(=O)[C@H](CO)NC(=O)[C@@H](NC(=O)[C@H](CC(=O)O)NC(=O)[C@H](CO)NC(=O)[C@@H](NC(=O)[C@H](Cc1ccccc1)NC(=O)[C@@H](NC(=O)CNC(=O)[C@H](CCC(=O)O)NC(=O)[C@H](C)NC(=O)[C@@H](N)Cc1c[nH]cn1)[C@@H](C)O)[C@@H](C)O)C(C)C)C(=O)N[C@@H](C)C(=O)N[C@@H](Cc1c[nH]c2ccccc12)C(=O)N[C@@H](CC(C)C)C(=O)N[C@H](C(=O)N[C@@H](CCCCN)C(=O)NCC(=O)N[C@@H](CCCNC(=N)N)C(N)=O)C(C)C [compound 3] | – | 13% | 13% | 11% | –
HAEGTYTNDTEYLEEKAAKEFIEWLIKGKPKKIRYS-NH2 (C-terminus assumed) [compound 39] | > 1000 nM | – | – | – | –
CC[C@H](C)[C@H](NC(=O)[C@H](CC(C)C)NC(=O)[C@H](Cc1c[nH]c2ccccc12)NC(=O)[C@H](CCC(=O)O)NC(=O)[C@@H](NC(=O)[C@H](Cc1ccccc1)NC(=O)[C@H](CCC(=O)O)NC(=O)[C@H](CCCCN)NC(=O)[C@H](C)NC(=O)[C@H](C)NC(=O)[C@H](CCCCN)NC(=O)[C@H](CCC(=O)O)NC(=O)[C@H](CCC(=O)O)NC(=O)[C@H](CC(C)C)NC(=O)[C@H](Cc1ccc(O)cc1)NC(=O)[C@H](CCC(=O)O)NC(=O)[C@@H](NC(=O)[C@@H](NC(=O)[C@H](CC(=O)O)NC(=O)[C@H](CC(N)=O)NC(=O)[C@@H](NC(=O)[C@H](Cc1ccc(O)cc1)NC(=O)[C@@H](NC(=O)CNC(=O)[C@H](CCC(=O)O)NC(=O)[C@H](C)NC(=O)[C@@H](N)Cc1c[nH]cn1)[C@@H](C)O)[C@@H](C)O)C(C)C)[C@@H](C)O)[C@@H](C)CC)C(N)=O [compound 42] | 0.22 nM | – | – | – | –
HAEFTYTNDVTEYLEEKAAKEFIEWLIKGGPSSGAPPPS-NH2 [compound 19] | – | 51% | 67% | 75% | Food Intake % inhibition 180 min ([3]; 180 min): 77%
